Experimental data from US20050180954A1, “Drug for treating bone disorders” (priority 1995, published 2005).

Assays:
Assay type in all cases: cell-based, mouse
MC3T3-E1 cells [1] = experiment: Quantification of calcium in calcified foci of MC3T3-E1; conditions: MC3T3-E1, Day 14
Protocol: MC3T3-E1 cells were placed in each well in 24-well plates in an amount of 50,000 cells/well and cultured to confluency. The medium was removed and fresh α-MEM containing 10% JCS, 50 μg/ml of L-ascorbic acid and 10 mM β-glycerophosphate was added in an amount of 0.9 ml/well, followed by adding 0.1 ml/well of medium containing varying concentration of IFN. The medium was replaced with IFN-free medium every 4 days. On Day 14, the medium was removed and the cells were lightly washed with Hank's solution. Anhydrous ethanol was added in an amount of 1 ml/well and fixation was carried out at room temperature for 15 minuets. Then the anhydrous ethanol was replaced with fresh anhydrous ethanol in an amount of 1 ml/well and 5 minutes later, each well was dried in the air. Then 1N hydrochloric acid was added in an amount of 1 ml/well and extraction was carried out at room temperature for 30 minutes. The total contents of each well were transferred to an Eppendorf tube and centrifuged at 1800×g at 4° C. for 10 minutes The amount of calcium in the supernatant was measured by Calcium C Test Wako and the amount of inorganic phosphorus in the supernatant was measured by Phospha B Test Wako. […] The IC50 value was as low as about 10 units/ml (FIG. 5).

[2] = system: osteoclast like cells from bone marrow cells of mice of ddy strain; experiment: Formation of osteoclast like cells from bone marrow cells of mice of ddy strain
Protocol: Bone marrow cells were prepared in accordance with the method by Takahashi et al (Takahashi, N. et al., Endocrinology, 122, 1373, 1988). Male mice of ddy strain of 7 weeks old were exanguinated to death under ether anesthesia and the femur and the tibia of hind legs were collected from each mouse. The connective tissues on the surfaces of the bones were carefully removed, and both ends of each bone were cut off with scissors. The bone marrow cells were suspended in α-Minimum Essential Medium (α-MEM, Nissui Pharmaceuticals Co.) containing 10% pre-colostrum new born calf serum (Mitsubishi Chemical, hereinafter referred to as “JCS” for short) and the suspension was flushed out through a 25 G needle attached to a syringe to collect the suspension in a centrifugal tube. The collected suspension was washed by centrifugation in the same medium at 2000 rpm at 4° C. for 5 minutes. The precipitated cells were dispersed in the above-mentioned medium and the washing by centrifugation was repeated twice, thereby preparing bone marrow cells. Murine IFN-α (hereinafter referred to as “MuIFNα” for short), Lot. B13010, 106 units/ml/vial (Calbiochem-Novabiochem International, San Diego, Calif.), murine IFN-β (hereinafter referred to as “MuIFNβ” for short), Lot M-0034, 10 units/ml/vial (Toray Industries, Inc.) and murine IFNγ (hereinafter referred to as “MuIFNγ” for short), Lot 254F3, 2.06×10^6 units/ml (Genentech, Calif.) were respectively dissolved in 10% JCS-containing α-MEM (Nissui Pharmaceuticals Co.) to the desired concentrations. Active vitamin D3 ([…], Wako Pure Chemical Industries, Ltd., hereinafter referred to as “Vit D3” for short) was dissolved in argon-saturated ethanol, and the obtained solution was diluted so as to attain the final ethanol concentration of 0.1% in all of the culture systems.
(§1) The number of viable bone marrow cells was counted using tripam blue dye exclusion test and the bone marrow cells were diluted with α-MEM containing 10% JCS, 10^−8M Vit D3, 10^−7 M dexamethasone to a population density of 1.5×10^6 cells/ml, followed by placing the resulting suspension in each well in 24-well plates in an amount of 0.45 ml/well. To each well, 50 μl of the medium containing varying concentration of IFN was added to make the volume to 0.5 ml/well and culturing was begun. At every three days, 0.4 ml of the culture medium was removed from each well and 0.4 ml of fresh medium (the above-mentioned medium containing the respective concentration of IFN) was added. On Day 8 from the beginning of the culturing, the medium was removed and the cells were fixed with mixed solution of ethyl alcohol and diethyl ether (1:1) and the cells were stained with tartrate resistant acid phosphatase (TRAP), followed by counting TRAP positive multinuclear cells with a phase contrast microscope. […] The inhibition effect of IFNγ was stronger than that of IFNβ. That is, the inhibition concentration IC50 of IFNγ was not more than 0.1 units/ml, and that of IFNβ was 0.2 units/ml.
The effects of the three murine IFNs, that is, MuIFNβ, γ and α in terms of abilities to inhibit formation of osteoclast like cells from bone marrow cells in mice of ddy strain were compared. The test was carried out as in Example 1. All of the murine IFNs inhibited the formation of osteoclast like cells, and the effect was strong in the order of γ, β and α. […] Thus, the activity of IFNα to inhibit formation of osteoclasts was about 1/20 of that of IFNβ and about not more than 1/100 of that of IFNγ.

MC3T3-E1 cells [3] = experiment: Proliferation of murine osteoblastic cells MC3T3-E1 (in vitro single administration)
Protocol: Murine osteoblast like cells MC3T3-E1 originated from C 57 BL/6 mouse (Kodama et al., Jap. J. Oral Biol., 23, 899, 1982) were washed with PBS(−) and the cells were dissociated by incubation in PBS(−) containing 0.1% pronase (Actinase E, Kaken Pharmaceuticals Co.), followed by dispersing the cells in α-MEM containing 10% JCS and 50 μg/ml of L-ascorbic acid (ASA). The ability to promote proliferation of cells was evaluated as follows. That is, MC3T3-E1 cells were placed in each well in 24-well plates (Corning) in an amount of 5000 cells/well. Then each IFN dilution was added to each well in an amount of 0.1 ml/well, and the culturing was begun. On Day 2, the medium was removed and the each IFN dilution was added in an amount of 0.5 ml/well (total amount of liquid: 0.5 ml/well). On Day 6, the medium was removed and the cells were washed with PBS(−) and a mixed enzyme solution of 0.1% pronase/0.1% collagenase was added to each well in an amount of 200 μl/well, followed by allowing to react at 37° C. for 15 minutes. Then α-MEM containing 10% fetal calf serum (Gibco, hereinafter referred to as “FCS” for short) was added in an amount of 300 μl/well to disperse the cells therein and the number of the cells was counted with a Coulter counter.

MC3T3-E1 cells [4] = experiment: Mineralization of murine osteoblasts, Von Kossa stain (in vitro single administration); conditions: Day 14
Protocol: As the parameters for evaluation of differentiation ability, alkaline phosphatase (ALPase) and mineralization were employed. Detection of alkaline phosphatase which is a marker of differentiation of osteoblasts was carried out on Day 8 from the beginning of the culturing by staining method. Evaluation of mineralization was carried out as follows. That is, MC3T3-E1 cells were placed in each well of 24-well plates in an amount of 50,000 cells/ml (10 times in the case of anti-cell test in Example 3). On Day 4, after confirming that the cells sufficiently reached confluency, the medium was discarded and fresh α-MEM containing 10% JCS, 50 μg/ml of L-ascorbic acid and 10 mM β-glycerophosphate was added in an amount of 0.9 ml/well, followed by adding medium containing varying concentration of IFN. Four days later, the medium was replaced with IFN-free medium, and the medium was replaced with IFN-free medium every 4 days. On Day 14, Von Kossa stain was performed to visualize the calcified foci. Expression of alkaline phosphatase activity which is a differentiation marker is an indispensable step to the subsequent mineralization.

[5] = system: osteoclast like cells from bone marrow cells of mice of C 57 BL/6 strain; experiment: Formation of osteoclast like cells from bone marrow cells of mice of C 57 BL/6 strain; conditions: Example 2, C 57 BL/6 strain bone marrow cells
Protocol: as §1
In place of mice of ddy strain, male mice of C 57 BL/6 of 7 weeks old were used. The mice were exanguinated to death under ether anesthesia and the femur and the tibia of hind legs were collected from each mouse. The connective tissues on the surfaces of the bones were carefully removed, and both ends of each bone were cut off with scissors. The bone marrow cells were suspended in α-MEM containing 10% JCS and the suspension was flushed out through a 25 G needle attached to a syringe to collect the suspension in a centrifugal tube. The collected suspension was washed by centrifugation in the same medium at 2000 rpm at 4° C. for 5 minutes. The precipitated cells were dispersed in the above-mentioned medium and the washing by centrifugation was repeated twice. Formation of osteoclast like cells was measured by the same method as in Example 1.

Substance: MuIFNγ: murine interferon γ, standard product Lot 254F3, provided by Genentech
- calcium deposition smaller than the control (MC3T3-E1 cells [1]; 1000 units/ml): 70%
- IC50 value of inhibition of calcium deposition (MC3T3-E1 cells [1]): about 10 units/ml
- inhibition of formation of osteoclast like cells ([2]; Example 1, Day 8, TRAP positive multinuclear cells): strongly inhibited formation of osteoclast like cells
- inhibition concentration IC50 of formation of osteoclast like cells ([2]; Example 1, Vit D3 + dexamethasone, Day 8, TRAP positive multinuclear cells): not more than 0.1 units/ml
- IC50 of inhibition of formation of osteoclast like cells ([2]; Example 8 comparison of three murine IFNs): not more than 0.1 units/ml
- inhibition of proliferation of MC3T3-E1 cells (MC3T3-E1 cells [3]; 10,000 units/ml, cell count on Day 6): about 30%
- dose from which slight inhibition of proliferation was observed (MC3T3-E1 cells [3]; MC3T3-E1, Day 6): 1 unit/ml
- concentration at which the inhibition effect on mineralization was expressed (MC3T3-E1 cells [4]): 10 units/ml
- influence on mineralization (calcified foci, Von Kossa stain) (MC3T3-E1 cells [4]): strong and dose dependent inhibition action on mineralization
- IC50 value of inhibition of mineralization (MC3T3-E1 cells [4]; Von Kossa): 3-4 units/ml
- inhibition of formation of osteoclast like cells [5]: strongly inhibited formation of osteoclast like cells
- IC50 of formation inhibition of osteoclast like cells ([5]; Day 8): 1.5 units/ml
